How the values were obtained:
Rattus norvegicus [1] = assay: Cmax in Sprague Dawley rat assessed as 6-Phenyl-5-[4-(qumolm-2-ylmethoxy)phenyl]pyridm-2(1H)-one at 11.04 mg/kg, po measured up to 8 hrs; type: ADME, organism-based; parameters: dose 11.04 mg/kg, route oral; settings: in vivo
Rattus norvegicus [2] = assay: AUC (0 to t) in Sprague Dawley rat assessed as 6-Phenyl-5-[4-(qumolm-2-ylmethoxy)phenyl]pyridm-2(1H)-one at 11.04 mg/kg, po measured up to 8 hrs; type: ADME, organism-based; parameters: time < 8 hr, dose 11.04 mg/kg, route oral; settings: in vivo
Rattus norvegicus [3] = assay: Tmax in Sprague Dawley rat assessed as 6-Phenyl-5-[4-(qumolm-2-ylmethoxy)phenyl]pyridm-2(1H)-one at 11.04 mg/kg, po measured up to 8 hrs; type: ADME, organism-based; settings: in vivo
Canis familiaris [4] = assay: AUC (0 to 24 hrs) in Beagle dog assessed as 6-(4-Fluorophenyl)-5-[4-quinolin-2-ylmethoxy)phenyl]-pyridine-2(1H)-one at 11.04 mg/kg, po; type: ADME, organism-based, Canis lupus familiaris; parameters: dose 11.04 mg/kg, time < 24 hr, route oral; settings: in vivo
Cynomolgus monkey [5] = assay: Tmax in cynomolgus monkey assessed as 6-(4-Fluorophenyl)-5-[4-quinolin-2-ylmethoxy)phenyl]-pyridine-2(1H)-one at 11.04 mg/kg, po; type: ADME, organism-based, Macaca fascicularis; settings: in vivo
Rattus norvegicus [6] = assay: AUC (0 to 24 hrs) in Sprague Dawley rat assessed as 6-(4-Fluorophenyl)-5-[4-quinolin-2-ylmethoxy)phenyl]-pyridine-2(1H)-one at […], iv; type: ADME, organism-based; parameters: dose 1.1 mg/kg, time < 24 hr, route intravenous; settings: in vivo
Rattus norvegicus [7] = assay: Cmax in Sprague Dawley rat assessed as 6-(4-Fluorophenyl)-5-[4-quinolin-2-ylmethoxy)phenyl]-pyridine-2(1H)-one at 11.04 mg/kg, po measured up to 8 hrs; type: ADME, organism-based; parameters: dose 11.04 mg/kg, route oral; settings: in vivo
Rattus norvegicus [8] = assay: Tmax in Sprague Dawley rat assessed as 6-(4-Fluorophenyl)-5-[4-quinolin-2-ylmethoxy)phenyl]-pyridine-2(1H)-one at 11.04 mg/kg, po measured after 8hrs; type: ADME, organism-based; settings: in vivo
Cynomolgus monkey [9] = assay: AUC (0 to 24 hrs) in cynomolgus monkey assessed as 6-(4-Fluorophenyl)-5-[4-quinolin-2-ylmethoxy)phenyl]-pyridine-2(1H)-one at 11.04 mg/kg, po; type: ADME, organism-based, Macaca fascicularis; parameters: time < 24 hr, dose 11.04 mg/kg, route oral; settings: in vivo
Canis familiaris [10] = assay: AUC (0 to 24 hrs) in Beagle dog assessed as 6-(4-Fluorophenyl)-5-[4-quinolin-2-ylmethoxy)phenyl]-pyridine-2(1H)-one at […], iv; type: ADME, organism-based, Canis lupus familiaris; parameters: time < 24 hr, dose 1.1 mg/kg, route intravenous; settings: in vivo
Canis familiaris [11] = assay: Cmax in Beagle dog assessed as 6-(4-Fluorophenyl)-5-[4-quinolin-2-ylmethoxy)phenyl]-pyridine-2(1H)-one at 11.04 mg/kg, po; type: ADME, organism-based, Canis lupus familiaris; parameters: dose 11.04 mg/kg, route oral; settings: in vivo
Rattus norvegicus [12] = assay: AUC (0 to t) in Sprague Dawley rat assessed as 6-(4-Fluorophenyl)-5-[4-quinolin-2-ylmethoxy)phenyl]-pyridine-2(1H)-one at 11.04 mg/kg, po measured after 8hrs; type: ADME, organism-based; settings: in vivo
Cynomolgus monkey [13] = assay: AUC (0 to 24 hrs) in cynomolgus monkey assessed as 6-(4-Fluorophenyl)-5-[4-quinolin-2-ylmethoxy)phenyl]-pyridine-2(1H)-one at […], iv; type: ADME, organism-based, Macaca fascicularis; parameters: time < 24 hr, dose 1.1 mg/kg, route intravenous; settings: in vivo
Cynomolgus monkey [14] = assay: Cmax in cynomolgus monkey assessed as 6-(4-Fluorophenyl)-5-[4-quinolin-2-ylmethoxy)phenyl]-pyridine-2(1H)-one at 11.04 mg/kg, po; type: ADME, organism-based, Macaca fascicularis; parameters: dose 11.04 mg/kg, route oral; settings: in vivo
Canis familiaris [15] = assay: Tmax in Beagle dog assessed as 6-(4-Fluorophenyl)-5-[4-quinolin-2-ylmethoxy)phenyl]-pyridine-2(1H)-one at 11.04 mg/kg, po; type: ADME, organism-based, Canis lupus familiaris; settings: in vivo
Rattus norvegicus [16] = assay: Cmax in Sprague Dawley rat assessed as 6-(2,4-Difluorophenyl)-5-[4-(quinolin-2-ylmethoxy)phenyl]-pyridin-2(1H)-one at 11.04 mg/kg, po measured up to 8 hrs; type: ADME, organism-based; parameters: dose 11.04 mg/kg, route oral; settings: in vivo
Rattus norvegicus [17] = assay: Tmax in Sprague Dawley rat assessed as 6-(2,4-Difluorophenyl)-5-[4-(quinolin-2-ylmethoxy)phenyl]-pyridin-2(1H)-one at 11.04 mg/kg, po measured up to 8 hrs; type: ADME, organism-based; settings: in vivo
Rattus norvegicus [18] = assay: AUC (0 to t) in Sprague Dawley rat assessed as 6-(2,4-Difluorophenyl)-5-[4-(quinolin-2-ylmethoxy)phenyl]-pyridin-2(1H)-one at 11.04 mg/kg, po measured up to 8 hrs; type: ADME, organism-based; parameters: dose 11.04 mg/kg, time < 8 hr, route oral; settings: in vivo
[19] = Drug level in liver microsomes (unknown origin) treated with 6-(4-Fluorophenyl)-5-[4-quinolin-2-ylmethoxy)phenyl]-pyridine-2(1H)-one incubated for 60 mins measured by LC-MS/MS analysis in presence of UDPGA; type: ADME
[20] = Drug level in intestinal microsomes (unknown origin) treated with 6-(4-Fluorophenyl)-5-[4-quinolin-2-ylmethoxy)phenyl]-pyridine-2(1H)-one incubated for 60 mins measured by LC-MS/MS analysis in presence of UDPGA; type: ADME, Intestine

**Q.** Which Cmax (Rattus norvegicus [1]) does the source give for CC(=O)Oc1ccc(-c2ccc(OCc3ccc4ccccc4n3)cc2)c(-c2ccccc2)n1 here?
**A.** 372 ng/mL

**Q.** What about the AUCt (Rattus norvegicus [2]) of the same molecule?
**A.** 1497 ng·h/mL

**Q.** What about the Tmax (Rattus norvegicus [3]) of the same molecule?
**A.** 1 h

**Q.** With CC(=O)Oc1ccc(-c2ccc(OCc3ccc4ccccc4n3)cc2)c(-c2ccc(F)cc2)n1 as the molecule, how does the AUC (Canis familiaris [4]) read?
**A.** 555 ng·h/mL

**Q.** What about the Tmax (Cynomolgus monkey [5]) of the same molecule?
**A.** 6 h

**Q.** And the AUC (Rattus norvegicus [6])?
**A.** 492 ng·h/mL

**Q.** And the Cmax (Rattus norvegicus [7])?
**A.** 372 ng/mL

**Q.** What about the Tmax (Rattus norvegicus [8]) of the same molecule?
**A.** 1 h

**Q.** And the AUC (Cynomolgus monkey [9])?
**A.** 345 ng·h/mL

**Q.** And the AUC (Canis familiaris [10])?
**A.** 841 ng·h/mL

**Q.** And the Cmax (Canis familiaris [11])?
**A.** 49 ng/mL

**Q.** What about the AUCt (Rattus norvegicus [12]) of the same molecule?
**A.** 2436 ng·h/mL

**Q.** And the AUC (Cynomolgus monkey [13])?
**A.** 1314 ng·h/mL

**Q.** And the Cmax (Cynomolgus monkey [14])?
**A.** 38 ng/mL

**Q.** What about the Tmax (Canis familiaris [15]) of the same molecule?
**A.** 1 h

**Q.** For CC(=O)Oc1ccc(-c2ccc(OCc3ccc4ccccc4n3)cc2)c(-c2ccc(F)cc2F)n1, which Cmax (Rattus norvegicus [16]) is on record?
**A.** 266 ng/mL

**Q.** What about the Tmax (Rattus norvegicus [17]) of the same molecule?
**A.** 2 h

**Q.** And the AUCt (Rattus norvegicus [18])?
**A.** 1764 ng·h/mL

**Q.** For CN(C)C(=O)Oc1ccc(-c2ccc(OCc3ccc4ccccc4n3)cc2)c(-c2ccc(F)cc2)n1, which Cmax (Rattus norvegicus [7]) is on record?
**A.** 42 ng/mL

**Q.** And the Tmax (Rattus norvegicus [8])?
**A.** 1 h

**Q.** And the AUCt (Rattus norvegicus [12])?
**A.** 182 ng·h/mL

**Q.** With O=C(O)[C@H]1O[C@@H](Oc2ccc(-c3ccc(OCc4ccc5ccccc5n4)cc3)c(-c3ccc(F)cc3)n2)[C@H](O)[C@@H](O)[C@@H]1O as the molecule, how does the Drug metabolism [19] read?
**A.** metabolite_detected

**Q.** What about the Drug metabolism [20] of the same molecule?
**A.** metabolite_detected

— ChEMBL document CHEMBL3632475, “Design, Synthesis, and Pharmacological Evaluation of 5,6-Disubstituted Pyridin-2(1H)-one Derivatives as Phosphodiesterase 10A (PDE10A) Antagonists” (J Med Chem, 2015)
